ChEMBL document CHEMBL5131389, “PSMA-targeted small-molecule docetaxel conjugate: Synthesis and preclinical evaluation” (Eur J Med Chem, 2022)
Active and inactive are the calls of the source. No cut-off for these calls is given here.

Tests used:
CWR22R [1] = test: Cytotoxicity against human 22Rv1 cells assessed as reduction in cell viability measured after 72 hrs by MTT assay; format: functional
PC-3 [2] = test: Cytotoxicity against human PC-3 cells assessed as reduction in cell viability measured after 72 hrs by MTT assay; format: functional
PC-3 [3] = test: Induction of ROS generation in human PC-3 cells at 800 mV holding potential measured after 1 hr by patch clamp amplifier based optical inverted microscopic analysis; format: functional, cell-based
CWR22R [4] = test: Effect on cell stiffness in human 22Rv1 cells assessed as increase in young's modulus at 2.7 nM measured after 1 hr by topography based scanning ion-conductance microscopic analysis; format: functional
Liver carboxylesterase = target: T1, Liver carboxylesterase (Sus scrofa, UniProt Q29550); test: Stability of the compound in porcine liver esterase assessed as compound remaining measured upto 96 hrs by LCMS based mass spectrometric analysis relative to initial amount; format: ADME; conditions: pig, read-out: Stability
T1 sequence (Q29550 whole entry): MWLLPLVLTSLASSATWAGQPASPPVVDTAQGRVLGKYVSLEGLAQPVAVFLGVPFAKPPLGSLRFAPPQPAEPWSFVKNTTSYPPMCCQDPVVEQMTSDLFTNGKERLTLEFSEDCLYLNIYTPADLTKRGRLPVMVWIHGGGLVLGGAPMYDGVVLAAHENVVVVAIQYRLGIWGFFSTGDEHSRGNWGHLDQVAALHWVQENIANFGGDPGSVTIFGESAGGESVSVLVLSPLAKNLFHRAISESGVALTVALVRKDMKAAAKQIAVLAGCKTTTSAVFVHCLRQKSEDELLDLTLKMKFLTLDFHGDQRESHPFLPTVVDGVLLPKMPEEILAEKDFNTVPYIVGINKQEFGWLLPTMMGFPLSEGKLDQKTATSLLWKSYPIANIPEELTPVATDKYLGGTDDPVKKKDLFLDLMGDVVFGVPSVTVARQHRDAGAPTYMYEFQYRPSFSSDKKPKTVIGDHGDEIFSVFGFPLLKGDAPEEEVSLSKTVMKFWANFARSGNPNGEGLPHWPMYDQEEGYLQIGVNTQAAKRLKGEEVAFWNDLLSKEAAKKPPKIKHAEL

[5] = Toxicity in Balb/c nude mouse xenografted with human 22Rv1 cells assessed as animal death at 20 mg/kg, ip measured upto 30 days; format: organism-based, CWR22R; conditions: in vivo, 720 h, time < 30 day
[6] = Toxicity in Balb/c nude mouse xenografted with human 22Rv1 cells assessed as animal death at 10 mg/kg, ip measured upto 30 days; format: organism-based, CWR22R; conditions: in vivo, 720 h, time < 30 day
DU-145 = test: Antitumor activity against human DU-145 cells xenografted in BALB/c nude mouse assessed as reduction in tumor growth index at 30 mg/kg, ip measured upto 30 days; format: functional; set-up: scale not given: the % may be the effect or the level left; conditions: time <= 30 day
[7] = Toxicity in BALB/c nude mouse xenografted with human DU-145 cells assessed as animal death at 30 to 60 mg/kg, ip measured upto 30 days; format: organism-based; conditions: in vivo, 720 h, dose 30-60 mg/kg, time < 30 day
[8] = Acute toxicity in ICR mouse assessed as kidney lesion at 183 to 960 mg/kg, iv administered as pluronic F127 formulation and measured for 14 days; format: organism-based; conditions: in vivo, 336 h, dose 183-960 mg/kg, time 14 day
[9] = Acute toxicity in Wistar rat assessed as kidney lesion at 15 to 279 mg/kg, iv administered as pluronic F127 formulation and measured for 14 days; format: organism-based; conditions: in vivo, 336 h, dose 15-279 mg/kg, time 14 day
[10] = Acute toxicity in Wistar rat assessed as hypertrophied adrenal gland at 15 to 279 mg/kg, iv administered as pluronic F127 formulation and measured for 14 days; format: organism-based; conditions: in vivo, 336 h, dose 15-279 mg/kg, time 14 day
[11] = Acute toxicity in ICR mouse assessed as liver damage at 183 to 960 mg/kg, iv administered as pluronic F127 formulation and measured for 14 days; format: organism-based; conditions: in vivo, 336 h, dose 183-960 mg/kg, time 14 day
[12] = Acute toxicity in Wistar rat assessed as liver damage at 15 to 279 mg/kg, iv administered as pluronic F127 formulation and measured for 14 days; format: organism-based; conditions: in vivo, 336 h, dose 15-279 mg/kg, time 14 day
[13] = C0 in Soviet Chinchilla rabbit at 8.1 mg/kg, iv administered as pluronic F127 formulation measured upto 72 hrs by high-performance liquid chromatography tandem mass spectrometric analysis; format: ADME, organism-based, Oryctolagus cuniculus; conditions: in vivo
[14] = AUC (0 to infinity) in Soviet Chinchilla rabbit at 8.1 mg/kg, iv administered as pluronic F127 formulation measured upto 72 hrs by high-performance liquid chromatography tandem mass spectrometric analysis; format: ADME, organism-based, Oryctolagus cuniculus; set-up: dose 8.1 mg/kg, time < 72 hrs, route iv; conditions: in vivo
[15] = Clearance in Soviet Chinchilla rabbit at 8.1 mg/kg, iv administered as pluronic F127 formulation measured upto 72 hrs by high-performance liquid chromatography tandem mass spectrometric analysis; format: ADME, organism-based, Oryctolagus cuniculus; conditions: in vivo
[16] = MRT (0 to t) in Albino Wistar rat at 15 mg/kg, iv administered as pluronic F127 formulation measured upto 72 hrs by high-performance liquid chromatography tandem mass spectrometric analysis; format: ADME, organism-based; conditions: in vivo
[17] = Subchronic toxicity in Wistar rat assessed as cumulative effect of drug at 58 mg/kg, iv administered as pluronic F127 formulation daily for 28 days; format: organism-based; conditions: in vivo, 672 h, time 28 day
[18] = Chronic toxicity in rat assessed as reduction in grooming frequency at 22.5 mg/kg, iv administered as pluronic F127 formulation at 4 intervals for 21 days and observed 3 weeks post last injection; format: organism-based; conditions: in vivo, 2544 h, time 106 day
[19] = Chronic toxicity in rat assessed as hair loss at 15 to 18.45 mg/kg, iv administered as pluronic F127 formulation at 4 intervals for 21 days and observed 3 weeks post last injection; format: organism-based; conditions: in vivo, 2544 h, dose 15-18.45 mg/kg, time 106 day
[20] = Chronic toxicity in rat assessed as neurological disorder at 15 to […] mg/kg, iv administered as pluronic F127 formulation at 4 intervals for 21 days and observed 3 weeks post last injection; format: organism-based; conditions: in vivo, 2544 h, dose lower 15 mg/kg, time 106 day
[21] = Chronic toxicity in rat assessed as decrease in erythrocytes in blood administered intravenously as pluronic F127 formulation at 4 intervals for 21 days and observed 3 weeks post last injection relative to control; format: cell-based; conditions: iv, 2544 h, time 106 day
[22] = Chronic toxicity in rat assessed as change in volume of excreted urine at 15 mg/kg, iv administered as pluronic F127 formulation at 4 intervals for 21 days and observed 3 weeks post last injection; format: organism-based; conditions: in vivo, 2544 h, time 106 day
[23] = Chronic toxicity in rat assessed as increase in relative brain mass administered intravenously as pluronic F127 formulation at 4 intervals for 21 days and observed 3 weeks post last injection relative to control; format: tissue-based; conditions: in vivo, iv, 2544 h, time 106 day
[24] = Chronic toxicity in rat assessed as reduction in body weight at 15 to 18.75 mg/kg, iv administered as pluronic F127 formulation at 4 intervals for 21 days and observed on 77 th day; format: organism-based; conditions: in vivo, 1848 h, dose 15-18.75 mg/kg, time 77 day
[25] = Chronic toxicity in Soviet Chinchilla rabbit assessed as external signs of intoxication administered intravenously as pluronic F127 formulation at 4 intervals for 21 days and observed 3 weeks post last injection; set-up: species or system Oryctolagus cuniculus; conditions: in vivo, iv, 2544 h, time 106 day

CC(=O)O[C@@]12CO[C@@H]1C[C@H](O)[C@@]1(C)C(=O)[C@H](O)C3=C(C)[C@@H](OC(=O)[C@H](OC(=O)CCCc4cn(CCCNC(=O)[C@H](Cc5ccc(O)cc5)NC(=O)[C@H](Cc5ccccc5)NC(=O)CCC(=O)NCCCCCC(=O)N(CCCC[C@H](NC(=O)N[C@@H](CCC(=O)O)C(=O)O)C(=O)O)Cc5cccc(Cl)c5)nn4)[C@@H](NC(=O)OC(C)(C)C)c4ccccc4)C[C@@](O)([C@@H](OC(=O)c4ccccc4)[C@H]21)C3(C)C
CC50 (CWR22R [1]): 2.7 nM | CC50 (PC-3 [2]): 2.8 nM | Activity (PC-3 [3]): Active | Activity (CWR22R [4]): Active | remaining at 96 h (Liver carboxylesterase): 60% | Activity [5]: Non-Toxic | Activity [6]: Non-Toxic | Activity (DU-145): 190.1% | Activity [7]: Non-Toxic | Activity [8]: Toxic | Activity [9]: Toxic | Activity [10]: Toxic | Activity [11]: Toxic | Activity [12]: Toxic | C0 at 72 h [13]: 79 µg/mL | AUC(0-inf) [14]: 289 µg·h/mL | clearance [15]: 0.483 mL/min/kg | MRT last at 72 h [16]: 24 min | Activity [17]: Toxic | Activity [18]: Toxic | Activity [19]: Non-Toxic | Activity [20]: Non-Toxic | Activity [21]: Toxic | Activity [22]: Non-Toxic | Activity [23]: Toxic | Activity [24]: Toxic | Activity [25]: Non-Toxic
